Reference: ChEMBL document CHEMBL1201862, “PubChem BioAssay data set” (2004)
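Interpolation was linear, between the two tested concentrations surrounding the appropriate level; five concentrations were tested over 48 hours in 96-well plates. Abbreviation: GI50, concentration required for 50% inhibition of growth.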 Calls of active or inactive are those of the source. Rule as the data show it: active = GI50 up to about 1.1 µM and inactive = higher.

Legend:
Test in all cases: NCI anticancer screen, dose series, 48 h
MOLT-4 = tested on: MOLT-4
OVCAR-4 = tested on: OVCAR-4
MDA-MB-231 = tested on: MDA-MB-231
OVCAR-3 = tested on: OVCAR-3
BT-549 = tested on: BT-549
UACC-257 = tested on: UACC-257
SNB-75 = tested on: SNB-75
DU-145 = tested on: DU-145
HOP-62 = tested on: HOP-62
TK-10 = tested on: TK-10
HT-29 = tested on: HT-29
SK-MEL-28 = tested on: SK-MEL-28
OVCAR-5 = tested on: OVCAR-5
PC-3 = tested on: PC-3
Hs-578T = tested on: Hs-578T
SK-MEL-5 = tested on: SK-MEL-5
MDA-N = tested on: MDA-N
UACC-62 = tested on: UACC-62
SF-268 = tested on: SF-268
RPMI-8226 = tested on: RPMI-8226
SF-539 = tested on: SF-539
MCF7 = tested on: MCF7
HCC 2998 = tested on: HCC 2998
U-251 = tested on: U-251
EKVX = tested on: EKVX
IGROV-1 = tested on: IGROV-1
SNB-19 = tested on: SNB-19
RXF 393 = tested on: RXF 393
HL-60 = tested on: HL-60
COLO 205 = tested on: COLO 205
HCT-116 = tested on: HCT-116
ACHN = tested on: ACHN
786-0 = tested on: 786-0
LOX IMVI = tested on: LOX IMVI
SF-295 = tested on: SF-295
HOP-92 = tested on: HOP-92
NCI-H460 = tested on: NCI-H460
T47D = tested on: T47D
K562 = tested on: K562
MDA-MB-435 = tested on: MDA-MB-435
NCI-H226 = tested on: NCI-H226
SK-MEL-2 = tested on: SK-MEL-2
NCI-H522 = tested on: NCI-H522
OVCAR-8 = tested on: OVCAR-8
HCT-15 = tested on: HCT-15
CCRF-CEM = tested on: CCRF-CEM
SW-620 = tested on: SW-620
KM12 = tested on: KM12
NCI-H23 = tested on: NCI-H23
A549 = tested on: A549
NCI/ADR-RES = tested on: NCI/ADR-RES
SN12C = tested on: SN12C
UO-31 = tested on: UO-31
M14 = tested on: M14
SK-OV-3 = tested on: SK-OV-3
CAKI-1 = tested on: CAKI-1
A498 = tested on: A498
Malme-3M = tested on: Malme-3M

`c1cnc(N2CCN(Cc3c[nH]c4ccccc34)CC2)nc1` was tested, and the GI50 (MOLT-4) was 36.6 µM (inactive), the GI50 (OVCAR-4) was 52 µM (inactive) and the GI50 (MDA-MB-231) was 37.2 µM (inactive). For the same molecule, the GI50 (OVCAR-3) was 52.2 µM (inactive), the GI50 (BT-549) was 42.1 µM (inactive) and the GI50 (UACC-257) was 28.8 µM (inactive). The GI50 (SNB-75) was 89.9 µM (inactive), the GI50 (DU-145) was 23.9 µM (inactive) and the GI50 (HOP-62) was 56.1 µM (inactive). The GI50 (TK-10) was 22.9 µM (inactive), the GI50 (HT-29) was 56.6 µM (inactive) and the GI50 (SK-MEL-28) was > 100 µM (inactive). For the same molecule, the GI50 (OVCAR-5) was > 100 µM (inactive), the GI50 (PC-3) was 23.5 µM (inactive) and the GI50 (Hs-578T) was > 100 µM (inactive). The GI50 (SK-MEL-5) was 36.2 µM (inactive), the GI50 (MDA-N) was 25.1 µM (inactive) and the GI50 (UACC-62) was 45.4 µM (inactive). For the same molecule, the GI50 (SF-268) was 74.5 µM (inactive), the GI50 (RPMI-8226) was 11.7 µM (inactive) and the GI50 (SF-539) was 25.6 µM (inactive). The GI50 (MCF7) was 16.9 µM (inactive), the GI50 (HCC 2998) was 18.6 µM (inactive) and the GI50 (U-251) was 37.1 µM (inactive). For the same molecule, the GI50 (EKVX) was 85.3 µM (inactive), the GI50 (IGROV-1) was > 100 µM (inactive) and the GI50 (SNB-19) was > 100 µM (inactive). The GI50 (RXF 393) was 41.9 µM (inactive), the GI50 (HL-60) was 51.6 µM (inactive) and the GI50 (COLO 205) was 25.4 µM (inactive). The GI50 (HCT-116) was 26.2 µM (inactive), the GI50 (ACHN) was 27.8 µM (inactive) and the GI50 (786-0) was 14.3 µM (inactive). For the same molecule, the GI50 (LOX IMVI) was 45.8 µM (inactive), the GI50 (SF-295) was 38.3 µM (inactive) and the GI50 (HOP-92) was > 100 µM (inactive). For the same molecule, the GI50 (NCI-H460) was 31.3 µM (inactive), the GI50 (T47D) was 22.6 µM (inactive) and the GI50 (K562) was 40 µM (inactive). The GI50 (MDA-MB-435) was 31 µM (inactive), the GI50 (NCI-H226) was 58.7 µM (inactive) and the GI50 (SK-MEL-2) was 13.3 µM (inactive). For the same molecule, the GI50 (NCI-H522) was > 100 µM (inactive), the GI50 (OVCAR-8) was 95.9 µM (inactive) and the GI50 (HCT-15) was 72.9 µM. The GI50 (CCRF-CEM) was 50.1 µM (inactive), the GI50 (SW-620) was > 100 µM (inactive) and the GI50 (KM12) was 20.4 µM (inactive). The GI50 (NCI-H23) was 93.5 µM (inactive), the GI50 (A549) was 80.4 µM (inactive) and the GI50 (NCI/ADR-RES) was 52.8 µM (inactive). For the same molecule, the GI50 (SN12C) was 42.1 µM (inactive), the GI50 (UO-31) was 38.5 µM (inactive) and the GI50 (M14) was 45.4 µM (inactive). The GI50 (SK-OV-3) was > 100 µM (inactive), the GI50 (CAKI-1) was 28.2 µM (inactive) and the GI50 (A498) was 28.7 µM (inactive). The GI50 (Malme-3M) was 43.4 µM (inactive).
